Values after ≈ are worked out from the molar mass of the structure shown.
Tests used:
K-562 cells = settings: 10 µM; cited from earlier work
HCT-116 colon = system: HCT-116 colon; set-up: method as in PMID 29223717; settings: cited from earlier work
MCF-7 breast = system: MCF-7 breast; set-up: method as in PMID 29223717; settings: cited from earlier work
143B osteosarcoma = system: 143B osteosarcoma; set-up: method as in PMID 29223717; settings: cited from earlier work
[1] = system: gastric adenocarcinoma AGS; test: MTT assay, AGS cells; type: cell-based, human; settings: for IC50: Homo sapiens, AGS, 24 h, MTT, 24 h treatment; for selectivity index AGS: SI = IC50 noncancer cells/IC50 cancer cells, in relation to human neonatal fibroblasts
Protocol: (§1) The human gastric adenocarcinoma AGS, cervical cancer HeLa, and acute promyelocytic leukemia HL-60 cells were obtained from the American Type Culture Collection (ATCC, Manassas, VA, USA). Human neonatal fibroblasts were obtained from LGC Standards (Luckenwalde, Germany). The HeLa and AGS lines were cultured in Dulbecco’s modified Eagle’s medium (DMEM) and DMEM/F12 medium, respectively. The HL-60 line was maintained in RPMI-1640 medium. Fibroblasts were cultured in Fibroblast Growth Medium with Supplement Mix. All the media were supplemented with 100 units/mL of penicillin, 100 µg/mL of streptomycin, and 10% (v/v) fetal bovine serum (FBS) (Merck Millipore, Burlington, MA, USA). The cells were incubated at 37 °C and 5% CO2.
(§2) To estimate the cytotoxic effect of the five compounds (4–8), MTT (3-(4,5-dimethylthiazol-2-yl)-2,5-diphenyltetrazolium bromide) assay was used. Oxaliplatin was used as a positive control in this test. All the cell lines were seeded in 96-well plates at a density of 5 × 10^3 cells/well and treated for 24 h with the compounds at concentrations of 0.5–40 µg/mL. Oxaliplatin was tested in the range of 20–400 µg/mL (50–1000 µM). After treatment, the cells were incubated with MTT (0.5 mg/mL; Merck Millipore, Burlington, MA, USA) for 3 h. Then, DMSO was used to dissolve formazan crystals, and the absorbance of the formazan solution was measured with a plate reader (Epoch, BioTek Instruments, Santa Clara, CA, USA). All the results (±standard deviation (SD)) were obtained from six repetitions in at least two independent experiments. The data are expressed as IC50 values (µg/mL).

cervical cancer HeLa = test: MTT assay, HeLa cells; type: cell-based, human; settings: for IC50: Homo sapiens, HeLa, MTT, 24 h treatment; for selectivity index HeLa: SI = IC50 noncancer cells/IC50 cancer cells, in relation to human neonatal fibroblasts
Protocol: as §1, §2

[2] = system: acute promyelocytic leukemia HL-60; test: MTT assay, HL-60 cells; type: cell-based, human; settings: for IC50: Homo sapiens, HL-60, 24 h, MTT, 24 h treatment; for selectivity index HL-60: SI = IC50 noncancer cells/IC50 cancer cells, in relation to human neonatal fibroblasts
Protocol: as §1, §2

[3] = system: human neonatal fibroblasts; test: MTT assay, noncancerous fibroblasts; type: cell-based; settings: Homo sapiens, Fibroblast, 24 h treatment
Protocol: as §1, §2

[4] = system: cancer cells (HeLa, HL-60, AGS); test: MTT assay, cancer cells taken together; type: cell-based, human; settings: HL-60 and AGS together
Protocol: as §1, §2

[5] = β-Carotene bleaching test; settings: for protection of lipids oxidation / reduction of lipid peroxidation (in words): compared to ascorbic acid
Protocol: β-Carotene bleaching test was based on the method described by Olszowy et al. with some modifications. First, 1 mg of β-carotene was dissolved in 5 mL of chloroform. Afterwards, […] of linoleic acid and 200 mg of Tween 40 were added. The chloroform was evaporated, and 50 mL of oxygenized water was added. The created emulsion was mixed with different concentrations of chalcone derivatives. β-carotene bleaching was analyzed at λ = 492 nm before (t = 0 min) and after 90 min (t = 90 min) of incubation at 50 °C (Epoch, BioTek Instruments, Santa Clara, CA, USA). Ascorbic acid was used as a standard. The control was composed of emulsion and DMSO.
The results were calculated according to the following Formula (4):[(AsampleT0 − AsampleT90)/(AcontrolT0 − AcontrolT90) × 100%(4)

[6] = DPPH radical scavenging assay; settings: for % of DPPH radical inhibition: concentration of 800 µg/mL
Protocol: The DPPH radical scavenging assay of samples (ligands or complexes) was performed with ascorbic acid as a standard. Different concentrations of chalcone derivatives, dissolved in DMSO, were mixed with the same amount of 0.06 mM DPPH methanolic solution and incubated at room temperature in the dark for 30 min. The absorbance was analyzed at λ = 517 nm using a 96-well microplate reader (Epoch, BioTek System, Winooski, VT, USA). The control was composed of DPPH and DMSO. DPPH inhibition was calculated according to the following Formula (2):DPPH Inhibition (%) = [(Acontrol − Asample)/Acontrol] × 100%(2)

neutrophil elastase = molecular target: T1, neutrophil elastase (Sus scrofa, UniProt P00772); test: Elastase assay (SANA substrate); type: biochemical, porcine; settings: Tris-HCl pH 8.0, SANA substrate; read-out: neutrophil elastase inhibition IC50 (converted)
T1 construct: purchased Sigma Chemical Co. (St. Louis, MO, USA)
Protocol: The elastase analysis was performed according to the spectrophotometric method with oleanolic acid as a reference. The reaction mixture (Tris-HCl buffer (pH 8.0), 1.0 μg/mL porcine pancreatic elastase, and different concentrations of chalcone derivatives was preincubated at room temperature for 15 min. Afterwards, the addition of the substrate—SANA—started the reaction. Product formation changes were analyzed at λ = 410 nm for 20 min every 20 s (Epoch, BioTek Instruments, Santa Clara, CA, USA). The control was composed of Tris-HCl buffer (pH 8.0), an appropriate concentration of the chalcone derivative, and SANA.

[7] = system: Bacillus cereus PCM 1948,2019 (ATCC11778); test: MIC determination; type: cell-based; settings: 37 °C, 48 h
Protocol: (§3) The MIC determinations for Staphylococcus epidermidis ATCC14990, Staphylococcus aureus ATCC6538, Enterococcus faecalis ATCC51299, Klebsiella pneumoniae ATCC13883, Escherichia coli ATCC8739, Salmonella enterica ATCC13076, Helicobacter pylori ATCC43504, Campylobacter jejuni ZMF, Campylobacter coli ZMF, Bacillus cereus PCM 1948,2019 (ATCC11778), and Listeria monocytogenes PCM2191 were performed based on the methodology described by Krauze-Baranowska et al.. The procedure for H. pylori was used in the experiments with Campylobacter strains, and the procedure for B. subtilis was used in the experiments with L. monocytogenes and B. cereus. The tested samples were dissolved in DMSO and diluted with water (concentration of approximately 500 μg/mL). The solutions were diluted geometrically by transferring the mixture/dilution (100 μL) from the first to the twelfth well of the microtiter plate. The final concentrations of samples used for antimicrobial effects ranged from 500 to 0.006 µg/mL. Ampicillin was used as a reference compound in the concentration range of 128 to 0.0625 µg/mL. The tests were incubated at 37 °C for 48 h. The diluent concentration had no effect on the activity of the tested compounds. All experiments were performed in triplicate.

Campylobacter coli ZMF = test: MIC determination; type: cell-based; settings: 37 °C, 48 h
Protocol: as §3

Campylobacter jejuni ZMF = test: MIC determination; type: cell-based; settings: 37 °C, 48 h
Protocol: as §3

[8] = system: Enterococcus faecalis ATCC51299; test: MIC determination; type: cell-based; settings: 37 °C, 48 h
Protocol: as §3

[9] = system: Escherichia coli ATCC8739; test: MIC determination; type: cell-based; settings: 37 °C, 48 h
Protocol: as §3

[10] = system: Helicobacter pylori ATCC43504; test: MIC determination; type: cell-based; settings: 37 °C, 48 h
Protocol: as §3

[11] = system: Klebsiella pneumoniae ATCC13883; test: MIC determination; type: cell-based; settings: 37 °C, 48 h
Protocol: as §3

[12] = system: Listeria monocytogenes PCM2191; test: MIC determination; type: cell-based; settings: 37 °C, 48 h
Protocol: as §3

[13] = system: Salmonella enterica ATCC13076; test: MIC determination; type: cell-based; settings: 37 °C, 48 h
Protocol: as §3

[14] = system: Staphylococcus aureus ATCC6538; test: MIC determination; type: cell-based; settings: 37 °C, 48 h
Protocol: as §3

[15] = system: Staphylococcus epidermidis ATCC14990; test: MIC determination; type: cell-based; settings: 37 °C, 48 h
Protocol: as §3

[16] = system: colon cancer cells (HTC-116); set-up: method as in PMID 12556221; settings: preclinical tests; cited from earlier work
[17] = ABTS radical scavenging assay
Protocol: The ABTS radical scavenging assay of chalcone derivatives was performed with ascorbic acid as a standard. Different concentrations of samples, dissolved in DMSO, were mixed with 170 μL of ABTS solution (2 mM ABTS diammonium salt and 3.5 mM potassium persulfate), and water was added to a final volume of 300 μL. ABTS solution with DMSO was used as a control. […] ABTS inhibition was calculated according to the following Formula (3):ABTS Inhibition (%) = [(Acontrol − Asample)/Acontrol] × 100%(3)

[18] = system: hepatocellular carcinoma HepG2 cells; set-up: method as in PMID 32545423; settings: cited from earlier work
[19] = molecular target: BRAF serine–threonine kinase; set-up: method as in PMID 22646766; settings: cited from earlier work

T1 sequence (P00772 27-266): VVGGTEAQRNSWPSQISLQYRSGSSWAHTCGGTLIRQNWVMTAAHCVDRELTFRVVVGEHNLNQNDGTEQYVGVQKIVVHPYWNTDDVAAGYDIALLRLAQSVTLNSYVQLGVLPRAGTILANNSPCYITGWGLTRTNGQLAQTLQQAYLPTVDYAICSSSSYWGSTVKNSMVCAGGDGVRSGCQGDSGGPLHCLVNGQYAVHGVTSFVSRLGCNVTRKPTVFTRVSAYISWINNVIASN

Compound: COc1ccc(C(=O)C=Cc2ccccc2)cc1S(N)(=O)=O [5-cinnamoyl-2-methoxybenzenesulfonamide]
- viability of leukemia cells (K-562 cells): less than 10%

Compound: Cc1cccc(S(=O)(=O)Nc2cccc(/C=C/C(=O)c3nc4ccccc4[nH]3)c2)c1 [(E)-N-{3-[3-(1H-benzo[d]imidazol-2-yl)-3-oxoprop-1-en-1-yl]phenyl}-3-methylbenzenesulfonamide]
- IC50 (HCT-116 colon): 0.6 µM
- IC50 (MCF-7 breast): 0.89 µM
- IC50 (143B osteosarcoma): 0.79 µM

Compound: Cc1cc(S(=O)(=O)Nc2ccc(C(=O)/C=C/c3ccccc3)cc2)c(Cl)cc1Cl [Compound 4, (E)-2,4-Dichloro-N-(4-Cinnamoylphenyl)-5-Methylbenzenesulfonamide]
- IC50 [1]: 1.23 ± 0.23 mg/L (≈ 2.76 µM)
- selectivity index AGS [1]: 26.14
- IC50 (cervical cancer HeLa): 9.63 ± 0.06 mg/L (≈ 21.6 µM)
- selectivity index HeLa (cervical cancer HeLa): 3.34
- IC50 [2]: 2.37 ± 0.23 mg/L (≈ 5.31 µM)
- selectivity index HL-60 [2]: 13.57
- IC50 [3]: 32.1 ± 2.91 mg/L (≈ 72 µM)
- IC50 toward cancer cells [4]: weaker activity
- protection of lipids oxidation / reduction of lipid peroxidation (in words) [5]: weaker properties
- % of DPPH radical inhibition [6]: 19.49 ± 0.38%
- IC50 (neutrophil elastase): 119 µM
- MIC [7]: > 500 mg/L
- MIC (Campylobacter coli ZMF): > 500 mg/L
- MIC (Campylobacter jejuni ZMF): > 500 mg/L
- MIC [8]: > 500 mg/L
- MIC [9]: > 500 mg/L
- MIC [10]: > 500 mg/L
- MIC [11]: > 500 mg/L
- MIC [12]: > 500 mg/L
- MIC [13]: > 500 mg/L
- MIC [14]: > 500 mg/L
- MIC [15]: > 500 mg/L

Compound: Cc1ccc(/C=C/C(=O)c2ccc(NS(=O)(=O)c3cc(C)c(Cl)cc3Cl)cc2)cc1 [Compound 8, (E)-2,4-Dichloro-5-Methyl-N-{4-[3-(p-Tolyl)acryloyl]phenyl}benzenesulfonamide]
- IC50 [1]: 3.6 ± 0.33 mg/L (≈ 7.82 µM)
- selectivity index AGS [1]: 7.72
- IC50 (cervical cancer HeLa): 7.96 ± 0.37 mg/L (≈ 17.3 µM)
- selectivity index HeLa (cervical cancer HeLa): 3.50
- IC50 [2]: 2.9 ± 0.17 mg/L (≈ 6.3 µM)
- selectivity index HL-60 [2]: 9.58
- IC50 [3]: 27.8 ± 2.82 mg/L (≈ 60.4 µM)
- IC50 toward cancer cells [4]: weaker activity
- protection of lipids oxidation / reduction of lipid peroxidation (in words) [5]: weaker properties
- % of DPPH radical inhibition [6]: 0.32 ± 0.03%
- IC50 (neutrophil elastase): 55.9 µM
- MIC [7]: > 500 mg/L
- MIC (Campylobacter coli ZMF): > 500 mg/L
- MIC (Campylobacter jejuni ZMF): > 500 mg/L
- MIC [8]: > 500 mg/L
- MIC [9]: > 500 mg/L
- MIC [10]: > 500 mg/L
- MIC [11]: > 500 mg/L
- MIC [12]: > 500 mg/L
- MIC [13]: > 500 mg/L
- MIC [14]: > 500 mg/L
- MIC [15]: > 500 mg/L

Compound: NS(=O)(=O)c1ccc(S(=O)(=O)Nc2cccc3c(Cl)c[nH]c23)cc1 [Indisulam]
- IC50 colon cancer cells (HTC-116) [16]: 0.11 mg/L (≈ 0.285 µM)

Compound: O=C1O[C@H]([C@@H](O)CO)C(O)=C1O [ascorbic acid, reference compound]
- β-carotene bleaching IC50 ([5]; 90 min at 50 °C): 15.6 ± 0.65 mg/L
- DPPH IC50 [6]: 12.75 ± 0.25 mg/L
- % of DPPH radical inhibition [6]: 100%
- ABTS IC50 [17]: 20.43 ± 0.79 mg/L
- % of ABTS radical inhibition ([17]; concentration of 800 µg/mL): 100%

Compound: COc1cc(O)cc(O)c1C(=O)/C=C/c1ccccc1 [cardamonin]
- IC50 [18]: 17.1 ± 0.592 µM

Compound: CCCS(=O)(=O)Nc1ccc(F)c(C(=O)c2c[nH]c3ncc(-c4ccc(Cl)cc4)cc23)c1F [vemurafenib]
- IC50 [19]: 0.031 µM

Compound: methoxytolylacryloylbenzenesulfonamide
- viability of leukemia cells (K-562 cells): less than 10%
